Tests used:
Pten KO mice [1] = assay: Macrocephaly alleviation (brain weight) in Pten KO mice; format: in vivo; set-up: average brain weight: unit not given here; settings: for average brain weight: FIG. 5
Experimental: (§1) As Pten KO mice, Ptenf/f_cre/cre KO mice or Ptenf/f_cre/++ Het mice (KD) were obtained by mating Pten floxed/floxed mice and CAMKII-cre mice. DMSO or athyriol was intraperitoneally injected at 5 or 10 mg/kg for 2 weeks from the age of mice of 6 weeks, and a behavioral test was performed in 7 days after administration. Pten floxed/floxed mice were used as littermates of the same age as a normal control group.
When athyriol was administered into Pten KO mice, whether the weight of brain increased compared to a mouse without Pten knockout was reduced was confirmed. In other words, whether athyriol had efficacy of alleviating macrocephaly symptoms was confirmed through the following experiment.
Specifically, the body weight was measured after the aforementioned behavioral test of Experimental examples 1-2 to 1-6, and then animals were sacrificed. After removing the skull, the brain including forebrain, midbrain and hindbrain was extracted and the ratio of brain weight to body weight and the body weight were measured.

normal mice = assay: Y-type maze test in normal mice; format: in vivo; settings: 5 mg/kg intraperitoneally, FIG. 14a
Experimental: (§2) A Y-maze was performed in a Y-shaped structure maze made of black acrylic material in which an angle of each arm was 120°, and a light and a cam were installed on the ceiling, and it was checked that white mice entered each arm while the surroundings were covered with a curtain. Through this, short-term memory was analyzed. In order to adapt mice to the environment, they were acclimated to the experimental space for 30 minutes. The mice were placed at one end of the maze and allowed to move freely for 12 minutes. Accuracy was measured by dividing time into 8 minutes, 10 minutes and 12 minutes. When the four paws of the mice entered the entrance, it was considered as completely entered. The percentage of accuracy was calculated as the number of times which a mouse entered each maze without repetition. […]
In order to verify this possibility, the efficacy of athyriol on memory ability and sociability of normal animals was investigated. A vehicle (30% DMSO) or athyriol was intraperitoneally injected at a dose of 5 mg/kg into normal mice (n=10), and from the 7th day after administration, the memory ability was evaluated by the same method as the Y-type maze test of Experimental example 1-2, and the sociability was evaluated by the same method as the 3 chamber test of Experimental example 1-6.

Pten KO mice [2] = assay: Y-type maze test in Pten KO mice; format: in vivo; settings: 5 or 10 mg/kg intraperitoneally for 14 days, FIG. 1a
Experimental: as §1
as §2, with “repetition. The number of times entering each of three different arms was divided by the total number of times entering arms-2 and converted into a percentage for datafication.” for “repetition.”

Pten KO mice [3] = assay: Social-open field test in Pten KO mice; format: in vivo; settings: 5 or 10 mg/kg, FIG. 3
Experimental: as §1
When athyriol was administered to the Pten KO mice, in order to confirm the sociability disorder was improved, a social-open field test was performed. After adapting the Pten-KO mice to the record environment for 30 minutes, they were adapted to the open filed test space made of black acrylic for 10 minutes. An unfamiliar mouse was placed in a test space in a transparent acrylic cage allowing minimal contact with the sense of smell. The movement of the test mouse was recorded for 10 minutes and analyzed with ethovision 3.1 program. Then, sociability was measured by setting 10 cm around the cylinder where the unfamiliar mouse was placed.
The social-open field test is measuring sociability as the time spent in a social interaction zone in contact with other mice in an open space, and measures the time of actually contacting also in the contact space, or sniffling toward other mice. […]

[4] = tested on: CYFIP1-overexpressing hippocampal neurons; assay: Excessive dendritic arborization in CYFIP1-overexpressing primary hippocampal neurons; format: cell-based, rat
Source text: Neural stem cells were primarily cultured from the hippocampal vestigial region of white mouse E16 embryos, and CYFIP1, which was found as a gene causing autism spectrum disorder, was introduced by transfection and overexpressed. When the neural stem cells in which CYFIP1 was overexpressed were differentiated, the neurite length and branch number increased compared to the normal cell, the number of dendritic spine increased, and morphological changes such as an increase in rod-shaped dendritic spines with a size of 0.6 μm or more, which are larger than the normal size, were accompanied. Therefore, CYFIP1 overexpression was used as a culture cell model of autism.
By treating norathyriol to the differentiating neural stem cells exogenously overexpressing CYFIP1, the effect of norathyriol on excessive dendritic arborization generated by CYFIP1 overexpression was investigated. By immunofluorescent staining method using an antibody against pan-neurofilament and an antibody against PSD (post-synaptic density)-95, which was expressed in the post-synaptic dendrite of synapses, the neurite length and dendritic spine number were measured and quantified. In addition, by DAPI staining, the nuclei of the neural cells were visualized.
Hippocampus-derived neural progenitor cells were isolated from the forebrain of E16 mouse embryos. SD-rat gestational age 16-day mice (Orient Bio) were purchased and the mice were anesthetized with CO2 deeply, and then the embryos were taken out. The embryos were immersed in Ca^2+/Mg^2+-free HBSS (Invitrogen) and the forebrain was isolated using a sterile injection needle under a dissecting microscope. While changing HBSS, the forebrain was separated into the left and right hemispheres using a forcep, and meninges were peeled off, and then the hippocampal eminence was separated. After washing the separated and collected tissue with cold N2 culture medium twice, 37° C. N2 culture medium was added and cells were slowly and mechanically isolated using a pipette. As the pipette, a Pasteur pipette coated with 1% BSA was used after making the pipette narrow and soft in diameter by firing the tip. After waiting for 3 minutes to allow undissolved tissue or vascular cells to settle, the supernatant was carefully taken as dissolved cells. These tissues were collected and mechanically isolated with the pipette in Ca^2+/Mg^2+-free HBSS (Invitrogen) buffer. The cells were seeded at 19,000 cells/cm^2 in a 35 mm culture dish coated with 15 μg/ml poly-L-ornithine and 1 μg/ml fibronectin (Sigma), and cultured using a serum-free N2 medium (medium for proliferation) in which 10 ng/mL bFGF (Invitrogen) was added under a condition of 5% CO2. […]

Compound | brain weight corrected by body weight, increase compared to control group (Pten KO mice [1]; 5 mg/kg) | average brain weight (Pten KO mice [1]; 5 mg/kg for 14 days) | brain weight corrected by body weight, increase compared to control group (Pten KO mice [1]; 10 mg/kg) | average brain weight (Pten KO mice [1]; 10 mg/kg for 14 days) | alleviation of macrocephaly symptoms (Pten KO mice [1]; 5 or 10 mg/kg for 14 days) | improvement of memory ability in Y-type maze test compared to vehicle control (normal mice) | short-term memory in Y-type maze test (Pten KO mice [2]) | increase of direct counterpart searching time (Pten KO mice [3]) | reduction of number of dendritic spines per unit neurite length ([4]; 50 nM and 100 nM, on average, FIG. 10b) | number of dendritic spines in primary branching neurites ([4]; FIG. 10b) | number of dendritic spines per cell ([4]; FIG. 10b) | number of dendritic spines per unit neurite length ([4]; from 10 nM, FIG. 10)
COc1cc(O)c2c(=O)c3cc(O)c(O)cc3oc2c1 [athyriol, 1,6,7-Trihydroxy-3-methoxy-9H-xanthen-9-on] | about 1.3 times | 517 | ~1.26 times | 515 | ≥ 68% | ≥ 25% | recovered almost to the level of the normal control group | 6% |  |  |  | 
O=c1c2cc(O)c(O)cc2oc2cc(O)cc(O)c12 [norathyriol, 1,3,6,7-tetrahydroxy-9H-xanthen-9-one] |  |  |  |  |  |  |  |  | ≤ 50% | reduced by norathyriol in a similar tendency | reduced by norathyriol in a similar tendency | decrease in the number of dendritic spines was observed
